ChEMBL document CHEMBL5357000, “Synthesis and structure-activity relationships of aryl fluorosulfate-based inhibitors as novel antitubercular agents” (Bioorg Med Chem Lett, 2024)
Values after ≈ are worked out from the molar mass of the structure shown.

Assays:
[1] = Cytotoxicity against human HepG2 cells assessed as reduction in cell viability measured after 3 days by CellTiterGlo Luminescent assay; assay type: toxicity, cell-based; conditions: time 3 day
[2] = Cytotoxicity against human HEK293T cells assessed as reduction in cell viability measured after 3 days by CellTiterGlo Luminescent assay; assay type: toxicity, cell-based, HEK-293T; conditions: time 3 day
[3] = test system: Mycobacterium tuberculosis; test: Antitubercular activity against Mycobacterium tuberculosis H37Rv assessed as inhibition of bacterial growth incubated for 7 days by Microdilution Alamar Blue assay; assay type: functional; conditions: 168 h, time 7 day
[4] = Plasma concentration in mouse at 20 mg/kg, po measured after 8 hrs; assay type: ADME, organism-based
[5] = Drug uptake in mouse lungs at 20 mg/kg, po measured after 8 hrs; assay type: ADME, organism-based; conditions: lung, read-out: Drug uptake

Compound	CC50 at 72 h [1]	CC50 at 72 h [2]	MIC [3]	concentration at 8 h [4]	concentration at 8 h [5]
O=S(=O)(F)Oc1ccc(OCc2c(F)cc(-n3cnnc3)cc2F)cc1	> 40 µM	> 40 µM	0.22 µM (≈ 0.0848 µg/mL)		
CN(C)c1ncn(-c2cc(F)c(COc3ccc(OS(=O)(=O)F)cc3)c(F)c2)n1	> 40 µM	> 40 µM	0.31 µM (≈ 0.133 µg/mL)		
CS(=O)(=O)Nc1ncn(-c2cc(F)c(COc3ccc(OS(=O)(=O)F)cc3)c(F)c2)n1				2120 ng/mL	1600 ng/mL
